Assay results taken from a melting point compilation (Tetko et al.; mined from patent text by program, amines drawn as free bases though some values may be those of a salt).

melting point | SMILES
102 to 104 °C | CCOC(=O)c1cc(-c2ccccc2)n(-c2cccc(C(C)=O)c2)c1C
124 °C | Cc1cc(N)c([N+](=O)[O-])c(C)c1N
298 to 301 °C | O=C(NCc1ccc(Cl)cc1)c1cnc2c(F)cc(-c3cccs3)cc2c1O
117 to 120 °C | COc1ccc2c(c1)C(=O)Cc1c(Cl)cccc1S2
199 to 201 °C | COc1ccc(C2CCOCC2)c2sc(NC(=O)c3ccnc(CN4CCOCC4)c3)nc12
316 to 319 °C | O=C1NCc2c1cc1ccc3c(c1c2-c1ccncc1)OCO3
213 to 215 °C | COC(=O)NC1=NCC(c2ccccc2Br)CN1 (stereo not drawn)
195 to 196 °C | CC(C)(C)C(NC(=O)c1ccc(Cl)cc1)NC(=C[N+](=O)[O-])Nc1cccnc1 (stereo not drawn)
160 to 162 °C | Cc1cccc([N+](=O)[O-])c1CNc1cccn2c(C)c(C)nc12
152 °C | Cc1sc2nc(N(CCO)CCO)nc(NCc3ccccn3)c2c1Br
205 to 207 °C | OP(O)C(NC(c1ccccc1)c1ccccc1)c1ccc2ccccc2c1 (stereo not drawn)
110 to 111 °C | Clc1cc(CCc2ccccn2)c2oc(-c3cccc4cccnc34)nc2c1
291 °C | CNc1nc(N)nc(NC)n1
141 to 142 °C | CCOc1cc(CO)ccc1OCc1nc(-c2ccco2)oc1C
85.8 °C | Clc1nc2c(-c3ccccc3)cccc2o1
84 to 87 °C | CSC1CC(=O)N1CC(=O)NCc1ccccc1 (stereo not drawn)
207 °C | Nc1ccn(C2CC(N)C(CO)O2)c(=O)n1 (stereo not drawn)
90 to 91 °C | OCc1cc2c(Oc3ccc(Cl)cc3)cncc2s1
134 to 136 °C | CCCCOC(=O)c1ccc2c(c1)C(=O)NC(C(Cl)(Cl)Cl)O2 (stereo not drawn)
218 to 220 °C | CC(=O)Nc1ncc(CCc2ccc(N)cc2)s1
168 to 170 °C | CCOC(=O)C1=C(C2CC2)Nc2n[nH]cc2C1c1ccccc1Br (stereo not drawn)
83 to 84 °C | Cc1cn([C@H]2CC(N=[N+]=[N-])[C@@H](COC(=O)C(C)(C)CC(=O)N[C@@H](Cc3ccccc3)[C@H](O)C(=O)N3CSC[C@H]3C(=O)NC(C)(C)C)O2)c(=O)[nH]c1=O (stereo partly drawn)
109 to 111 °C | O=C1Cc2c(Cl)cccc2Sc2cc(F)ccc21
124 °C | CC(O)c1cc(N)ccc1N (stereo not drawn)
102 to 103 °C | CC(C)(C)c1cccc(C[C@H](N)[C@H](O)c2cccc(Cl)c2)c1 (racemic)

melting point | SMILES
178 to 180 °C | C#CCOc1ccc2c(Cl)nnc(C)c2c1
205 to 210 °C | CCN1C(=O)C(C(=O)Nc2cccc(C(=O)Nc3ccc(I)cc3)c2)c2cc(C(C)=O)ccc21 (stereo not drawn)
155 to 156 °C | c1ccc(COc2cncc(N3CCNCC3)n2)cc1
79 to 82 °C | Cc1nc(-c2ccc(C(F)(F)F)cc2)sc1C(=O)N[C@H](C)[C@](O)(Cn1cncn1)c1ccc(F)cc1F
73 to 94 °C | COc1ccc(C(C(Br)c2ccc(F)cc2)C(F)(F)F)cc1 (stereo not drawn)
67 to 68 °C | N#CCC(=N)c1cccc(F)c1
120 to 122 °C | CCn1c(=O)c(-c2cc(OC)cc(OC)c2)cc2cnc(SC)nc21
133 to 135 °C | N#CSc1cc(Cl)c(NCCC(=O)O)cc1Cl
146 to 148 °C | CN(C)C(=Nc1ccccc1)N(C)N1C(=O)c2ccccc2C1=O
135 to 136 °C | COc1ccc(COc2cccc(C(=O)Nc3ccc(S(C)=O)cc3)c2)cc1 (stereo not drawn)
124 to 126 °C | CCCC(CCC)n1c(CC)nc2c1c(=O)n(C)c(=O)n2-c1c(OC)ccnc1C
144 to 146 °C | COc1ccc(C#CCCCCOc2ccc(C(=O)c3cccc(C(=O)O)c3)cc2CCC(=O)O)cc1
178 to 180 °C | COC(=O)C1=C(O)c2sc(C(F)(F)F)cc2S(=O)(=O)N1C
270 °C | O=C(Nc1ccc2ccc(Cl)nc2n1)C1=CSCCO1
172 to 173 °C | C/C(=C\c1ccc(C(=O)O)cc1)c1ccc2c(c1)OCCO2
75 to 77 °C | CCC(=O)N(CC)c1ccc(C(=O)C=CN(C)C)cc1
128 to 130 °C | Cc1ccccc1C(=O)Nc1ccc(-n2nc(C3CC3)cc2C2CC2)cc1
257 to 260 °C | COc1ccc([N+](=O)[O-])c(C=C2C(=O)NC(=O)N2C)c1
180 to 182 °C | CCn1c2ccccc2c2cc(C(C#N)=C(C#N)c3ccc(C(F)(F)F)cc3)ccc21
36 to 38 °C | CC(=O)c1cc(Cl)ccc1NS(=O)(=O)C(F)(F)F
148 to 149 °C | Cc1cc(C)c(NC(=O)C2c3ccccc3COc3ccc(C)cc32)c(C)c1 (stereo not drawn)
136 to 137 °C | CS(=O)(=O)c1ccc(C2=C(c3ccccc3)CCC2)cc1
194 to 196 °C | O=C(O)CNC(=O)c1nc(Cl)c2cc(OCc3ccccc3)ccc2c1O
33 to 35 °C | O=S(=O)(Cl)CCCCCCCc1ccc(OCc2ccccc2)cc1
74 to 83 °C | CC(=O)NCCCC(=NNC(N)=S)c1ccccc1

melting point | SMILES
163 to 164 °C | CC(C)(C)c1cc(NC(=O)NNC(=O)c2ccc([N+](=O)[O-])cc2)cc(C(C)(C)C)c1O
157 to 161 °C | NNC(=O)Cc1cc(C(=O)c2ccc(Br)cc2)sc1-c1ccccc1
203 to 204 °C | CC(=O)c1ccc(C(=O)Nc2ccc(-n3nc(C(F)(F)F)cc3C(F)(F)F)cc2)cc1
43 to 45 °C | CC(C)(C)NS(=O)(=O)c1ccccc1CCO
167 to 169 °C | CCCOc1ccc(-c2cncn2-c2ccc(S(C)(=O)=O)cc2)cc1
65 to 67 °C | COC(=O)C1=C(C)NC(C)=C(C(=O)OCCOc2cccc(CCNCC(O)COc3ccc(COCCOC(C)C)cc3)c2)C1c1cccc([N+](=O)[O-])c1 (stereo not drawn)
138 to 139 °C | CCCc1cn(CC(=O)O)nc1OCCCc1cn(-c2ccc(C(F)(F)F)cn2)nc1CCC
164 to 166 °C | NC1CCC(CC2CCC(Nc3ncc4ncnc(Nc5ccc(F)c(Cl)c5)c4n3)CC2)CC1 (stereo not drawn)
165 to 167 °C | NS(=O)(=O)Cc1csc(-c2ccc(Cl)c(Cl)c2)n1
126 to 129 °C | COc1ccc(C(=O)C2=CCCCC2)c(Cl)c1Cl
118 to 119 °C | CC(C)(C)OC(=O)Nc1cc(OCC#N)c(-c2ccc(F)cc2)cc1N
127 to 130 °C | c1ccc2c(c1)C1CCC2c2c(OCC3CO3)cccc21 (stereo not drawn)
103 to 105 °C | CC(=O)c1cc(-c2ccncc2)sc1Oc1ccccc1
> 300 °C | CCn1cc(C(=O)O)c(=O)c2c(C)c(F)c(F)cc21
71 to 72 °C | CC(C)(CCCCCCCCCCC(C)(C)CCC(=O)O)CCC(=O)O
85 to 87 °C | CCCCCCOc1ccc(-c2nc(-c3ccc(OCCCCCC)cc3O)nc(-c3ccc(OCCCCCC)cc3OCCCCCC)n2)c(O)c1
53.5 to 55 °C | N#CCCC(=O)c1ccncc1
255 to 258 °C | COC(=O)Cn1c(=O)[nH]c(=O)c2ccc(Cl)cc21
151 to 152 °C | CCCCCCCCOc1ccc(-c2ccc(NC(=O)N(O)C(CC)CC)cc2)cc1
71 to 73 °C | CC(=O)N1CCSc2cccc(C)c2C1
41 to 42 °C | CCCCCCCCCCC(C)(C)C(=O)NC1CCCNC(=O)C1 (stereo not drawn)
99 to 100 °C | CC(=O)NC[C@H]1CN(c2ccc(N3CCC(O)(C#N)CC3)c(F)c2)C(=O)O1
96 to 99 °C | COc1cc(N)c(Cl)cc1C(=O)NCC1CCN(CCCCCC(=O)c2ccc(O)cc2O)CC1
